Laboratory results published in patent US7632928B2, “Method and antibodies for detecting nitrofuran” (Charm Sciences, Inc, priority 2004, dated 2009).

Columns and labels:
[1] = tested on: antibody raised against FZDM-Glut-Thyroglobulin immunogen; test: AOZ ELISA competitive binding assay; details: positive controls at input levels 0.1 to 10 ppb; PEB vs PBS buffer; plate coated with N-linked FZDM-BSA
Text: An AOZ ELISA competitive binding assay is shown below, where the N-linked direct conjugate of FZDM-BSA is used as a binding partner conjugate coated on the ELISA plate, and the N-linked direct conjugate of FZDM-alpha-amylase is used as the positive control of protein-bound FZDM in comparison with the FZDM positive control. The antibody used in the assay was raised against the prior art FZDM-Glut-Thyroglobulin immunogen. Assays were run in two different buffers comparing PEB (Protein Elution Buffer) vs. PBS (Phosphate buffer saline).

melting point	dose-responses (% inhibition) [1]	SMILES
171 to 173 °C	–	N#CC=CC(=O)/C=N/N1CC(=O)NC1=O [compound 1, 5-(2,4-Dioxoimidazolidin-1-ylimino)-4-oxo-pent-2-enenitrile]
–	varying dose-responses	N#CC=CC(=O)/C=N/N1CCOC1=O [compound 3, 5-(2-oxo-oxazolidin-3-ylimino)-4-oxo-pent-2-enenitrile]
